According to patent publication US9988430B2, “Stable GLP-1 based GLP-1/glucagon receptor co-agonists” (Novo Nordisk A/S, priority 2014, dated 2018):
*1 amine or outer side, *2 acyl side, *3 side chain or, on linkers, in order; H or OH if unused. Where a SMILES comes first, the peptide text is derived from it. Side-chain parts run from the residue outwards. [ ]: non-standard residue; d: D form. The star is where a group is joined. C18 diacid = O=C(O)CCCCCCCCCCCCCCCCC(=O)*; γGlu = O=C(O)[C@H](CCC(=O)[*:2])N[*:1]; Desaminohistidyl = O=C(CCc1c[nH]cn1)*; AEEA = NCCOCCOCC(=O)O; Aib = CC(C)(N)C(=O)O

Target: T1, human GLP-1 receptor (Homo sapiens, UniProt P43220)
T1 construct: expressed in transfected cells; host or cells: membranes of BHK cells, parent line BHKTS13, clone FCW467-12A
T1 sequence (P43220 24-463): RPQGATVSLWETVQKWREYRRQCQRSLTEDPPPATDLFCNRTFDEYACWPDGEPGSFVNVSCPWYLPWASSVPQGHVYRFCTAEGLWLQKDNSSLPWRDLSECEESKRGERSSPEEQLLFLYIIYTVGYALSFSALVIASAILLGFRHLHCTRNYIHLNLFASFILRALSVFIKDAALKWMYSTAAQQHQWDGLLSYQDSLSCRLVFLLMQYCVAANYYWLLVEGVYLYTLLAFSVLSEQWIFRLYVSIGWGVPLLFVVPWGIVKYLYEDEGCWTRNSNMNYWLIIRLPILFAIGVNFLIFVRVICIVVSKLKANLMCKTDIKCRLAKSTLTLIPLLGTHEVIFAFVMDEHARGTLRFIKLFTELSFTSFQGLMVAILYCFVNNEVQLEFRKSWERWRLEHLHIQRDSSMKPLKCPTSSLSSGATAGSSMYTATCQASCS
Assay: Assay (II)(a): GLP-1 receptor binding, [125I]GLP-1 displacement, SPA on BHK membranes
Conditions: displacement of [125I]GLP-1, membranes with human GLP-1 receptor; read-out: IC50 GLP-1R
Method in brief: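 Membranes from BHK cells expressing human GLP-1 receptor with WGA SPA beads, [125I]GLP-1(7-36)NH2 (480 pM added solution) and compound in HEPES pH 7.4 buffer with EGTA, MgCl2, Tween 20. Incubated 2 h at 30° C; SPA counts fitted by non-linear regression to IC50 in nM.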

Row | IC50 [nM] | Structure (SMILES)
1 | 0.3 | CC[C@H](C)[C@H](NC(=O)[C@H](Cc1ccccc1)NC(=O)[C@H](CCC(=O)O)NC(=O)[C@H](CCCNC(=N)N)NC(=O)[C@H](C)NC(=O)[C@H](C)NC(=O)[C@H](CCCNC(=N)N)NC(=O)[C@H](C)NC(=O)[C@H](CCC(=O)O)NC(=O)[C@H](CC(C)C)NC(=O)[C@H](Cc1ccc(O)cc1)NC(=O)[C@H](CCCCN)NC(=O)[C@H](CO)NC(=O)[C@@H](NC(=O)[C@H](CC(=O)O)NC(=O)[C@H](CO)NC(=O)[C@@H](NC(=O)[C@H](Cc1ccccc1)NC(=O)[C@@H](NC(=O)CNC(=O)[C@H](Cc1c[nH]cn1)NC(=O)C(C)(C)NC(=O)CCc1c[nH]cn1)[C@@H](C)O)[C@@H](C)O)C(C)C)C(=O)N[C@@H](C)C(=O)N[C@@H](Cc1c[nH]c2ccccc12)C(=O)N[C@@H](CC(C)C)C(=O)N[C@@H](CC(C)C)C(=O)N[C@@H](CCCCNC(=O)CC[C@H](NC(=O)COCCOCCNC(=O)COCCOCCNC(=O)CC[C@H](NC(=O)CC[C@H](NC(=O)CCCCCCCCCCCCCCCCC(=O)O)C(=O)O)C(=O)O)C(=O)O)C(=O)NCC(=O)NCC(=O)NCC(=O)O [Example 31, N^ε34-[(4S)-4-carboxy-4-[[2-[2-[2-[[2-[2-[2-[[(4S)-4-carboxy-4-[[(4S)-4-carboxy-4-(17-carboxyheptadecanoylamino)butanoyl]amino]butanoyl]amino]ethoxy]ethoxy]acetyl]amino]ethoxy]ethoxy]acetyl]amino]butanoyl]-[Imp7,Aib8,His9,Lys18,Ala22,Arg23,Arg26,Leu33,Gly36]-GLP-1-(7-37)-peptide] (Desaminohistidyl-[Aib]HGTFTSDVSKYLEARAAREFIAWLLK([γGlu-AEEA-AEEA-γGlu-γGlu-C18 diacid])GGG-OH)
2 | 0.2 | CC[C@H](C)[C@H](NC(=O)[C@H](Cc1ccccc1)NC(=O)[C@H](CCC(=O)O)NC(=O)[C@H](CCCNC(=N)N)NC(=O)[C@H](C)NC(=O)[C@H](C)NC(=O)[C@H](CCC(N)=O)NC(=O)[C@H](CCC(=O)O)NC(=O)[C@H](CCC(=O)O)NC(=O)[C@H](CC(C)C)NC(=O)[C@H](Cc1ccc(O)cc1)NC(=O)[C@H](CCCCN)NC(=O)[C@H](CO)NC(=O)[C@@H](NC(=O)[C@H](CC(=O)O)NC(=O)[C@H](CO)NC(=O)[C@@H](NC(=O)[C@H](Cc1ccccc1)NC(=O)[C@@H](NC(=O)CNC(=O)[C@H](Cc1c[nH]cn1)NC(=O)C(C)(C)NC(=O)CCc1c[nH]cn1)[C@@H](C)O)[C@@H](C)O)C(C)C)C(=O)N[C@@H](C)C(=O)N[C@@H](Cc1c[nH]c2ccccc12)C(=O)N[C@@H](CC(C)C)C(=O)N[C@@H](CC(C)C)C(=O)N[C@@H](CCCCNC(=O)CNC(=O)[C@H](CO)NC(=O)CC[C@H](NC(=O)CC[C@H](NC(=O)CCCCCCCCCCCCCCCCC(=O)O)C(=O)O)C(=O)O)C(=O)N[C@H](C(N)=O)[C@@H](C)O [Example 4, N^ε34-[2-[[(2S)-2-[[(4S)-4-carboxy-4-[[(4S)-4-carboxy-4-(17-carboxyheptadecanoylamino)butanoyl]amino]butanoyl]amino]-3-hydroxypropanoyl]amino]acetyl]-[Imp7,Aib8,His9,Lys18,Glu22,Arg26,Leu33,Thr35]-GLP-1-(7-35)-peptide amide] (Desaminohistidyl-[Aib]HGTFTSDVSKYLEEQAAREFIAWLLK([Gly-Ser-γGlu-γGlu-C18 diacid])T-NH2)
